One experiment relates to HeLa. The experiment can be described thus: Growth of cancer cell lines, MTT reactivity (HeLa). The class given is cell-based, human. The settings on record: mean drug concentration causing 50% cell killing, 3-4 experiments, 72 to 96 h, read-out: IC 50 (μM) HeLa. As for the experimental part: (§1) The sensitivities of the two cancer cell lines HeLa, which is a sensitive human cervix epitheloid carcinoma cell line, and CoLo 320DM, which is an intrinsically multidrug resistant human colon adeno-carcinoma cell line, to 13 of the complexes of the invention was tested.

The test system of a further experiment is CoLo 320DM. The experiment can be described thus: Growth of cancer cell lines, MTT reactivity (CoLo 320DM). The experiment is classed as cell-based, human. To be noted: mean drug concentration causing 50% cell killing, 3-4 experiments, 72 to 96 h, multidrug resistant line, read-out: IC 50 (μM) CoLo 320DM. As for the experimental part:
as §1

The subject of the next experiment is COR L23. The experiment can be described thus: Growth of cancer cell lines, MTT reactivity (COR L23). The experiment is classed as cell-based, human. To be noted: mean drug concentration causing 50% cell killing, 3-4 experiments, 72 to 96 h, read-out: IC 50 (μM) COR L23.
A further experiment concerns COR L23/CPR. The experiment can be described thus: Growth of cancer cell lines, MTT reactivity (COR L23/CPR). To be noted: mean drug concentration causing 50% cell killing, 3-4 experiments, 72 to 96 h, platinum resistant variant, read-out: IC 50 (μM) COR L23/CPR. The experiment is classed as cell-based, human.
For experiment [1], the system named is Chinese hamster ovary (CHO) cells. The experiment can be described thus: Survival of CHO cells after irradiation under hypoxic conditions. The class given is cell-based. The settings on record: for Mean Inactivation Dose (Gy) / Dose Modifying Factor (DMF): hypoxic conditions; for Mean Inactivation Dose (Gy): 8 MV photon beam; for Dose Modifying Factor (DMF): ratio of mean inactivation doses; for Sensitivity of CHO cells to irradiation under hypoxic conditions (in words): submicromolar concentrations. As for the experimental part: CHO cells were treated in glass test tubes with non-toxic concentrations (0.39 μM and 0.78 μM) of the two rhodium-ferrocene complexes [Rh(fctca)(cod)] and [Rh(fctfa)(cod)] and irradiated with an 8 MV photon beam in a modular incubator chamber with a 2 cm tissue equivalent wax buildup (8MVmax) under aerobic and hypoxic conditions.
Neither of the two rhodium complexes tested increased the sensitivity of CHO cells to irradiation in an aerobic environment (results not shown). However, both complexes increased the sensitivity of CHO cells under hypoxic conditions (FIGS. 4 and 5). A dose-modifying factor of 2.9 was obtained under hypoxic conditions for 0.78 μM [Rh(fctfa)(cod)] (Table 2) and 1.9 for 0.39 μM [Rh(fctca)(cod)] (Table 3). The dose-modifying factors were calculated as the ratio of mean inactivation doses [calculated from the respective inactivation parameters obtained from the linear quadratic fit of the cell growth fraction (S)]. Published dose modifying factors (DMFs) measured for cisplatin range from 1.2-2 (Chibber R, Stratford I J, O'Neill P, Sheldon P W, Ahmed I, Lee B. 1985. The interaction between radiation and complexes of cis-Pt (II) and Rh (II): Studied at the molecular level. Int J Radiat Biol 48:513-524; Van De Vaart,. P J M, Klaren, H M, Holland I, Begg A C. 1997. Oral platinum analogue JM216, a radiosensitizer in oxic murine cells. Int J Radiat Biol 72(6):675-683).

In experiment [2] the test system is PHA-stimulated human lymphocytes. The experiment can be described thus: Proliferation of PHA-stimulated human lymphocytes, MTT reactivity. To be noted: for IC50: read-out: IC 50 (μM) PHA-stimulated lymphocytes, mean drug concentration causing 50% cell killing, PHA 2.5 μg/ml, 72 h, MTT; for Tumor specificity: activity against tumor cells versus stimulated normal human lymphocytes: tumor cells versus PHA-stimulated lymphocytes (Table 1).
Protocol: In these experiments suspensions of purified human mononuclear leukocytes were cultured in RPMI medium supplemented with 10% fetal calf serum (FCS) at 37° C. in an atmosphere of 5% CO2 in 96 well round bottom microtitre plates. To some of the wells a mitogen (phytohaemagglutinin, PHA) was added at a concentration of 2.5 μg/ml. The cultures were treated with either ferrocene-containing β-diketones or their rhodium complexes at varying concentrations for 72 h, and the extent of cell growth was assayed by MTT reactivity.

Experiment [3] in a line: Anticancer activity of synthesis intermediates. The settings on record: intermediates of the published synthesis route.
The conditions of experiment [4]: published values; cited from earlier work.

The values that follow come from US20040092584A1, “Substance or composition for the treatment of cancer” (priority 2000, published 2004).

Protocol for COR L23/CPR: In these experiments cancer cell lines were cultured in standard tissue culture medium supplemented with 10% fetal calf serum (FCS) at 37° C. In an atmosphere of 5% CO2 in 96 well round bottom microtitre plates. The cultures were treated with either ferrocene-containing β-diketones or their rhodium complexes at varying concentrations for 72 to 96 h, and the extent of cell growth was assayed by MTT [3-(4,5-dimethylthiazol-2yl)-2,5-diphenyl tetrazolium bromide] reactivity, which detects only viable cells.

Turning to `O=C(CC(=O)C(Cl)(Cl)Cl)[c-]1cccc1.[Fe+2].c1cc[cH-]c1` [Hfctca, ferrocenoyltrichloroacetone], the IC50 in the experiment with HeLa stood at 37.7 µM; in the experiment with CoLo 320DM, 28.4 µM; with COR L23, 12.5 µM; in the experiment on COR L23/CPR it was 20.1 µM; in experiment [2], 67.5 µM. The “Radiosensitisation, initial tests (in words)” value in experiment [1] is given as “promising”.

Take diferrocenoylmethane [Hdfcm]: the IC50 was 54.4 µM in the experiment on HeLa; 64.3 µM in the experiment on CoLo 320DM; 75.4 µM in the experiment with COR L23; 74.4 µM in the experiment on COR L23/CPR; over 100 µM in experiment [2].

For ferrocenoyltrifluoroacetone [Hfctfa], the IC50 in the experiment on HeLa turned out to be 6.8 µM; in the experiment on CoLo 320DM it was 7.3 µM; with COR L23, 4.5 µM; in the experiment with COR L23/CPR, 6.3 µM; in experiment [2] it was 83.1 µM. In addition, in experiment [1], the “Radiosensitisation, initial tests (in words)” value was “promising”. In experiment [2], the “Tumor specificity: activity against tumor cells versus stimulated normal human lymphocytes” value is given as “eight”.

With acetyl ferrocene, in experiment [3], the Significant anticancer activity result is “none”.

Consider `C1=CCCC=CCC1.O=C(C=C([O-])C(F)(F)F)[c-]1cccc1.[Rh+].[Ru+2].c1cc[cH-]c1` [[Rh(rctfa)(cod)], (η^4-1,5-cyclooctadiene)(1-ruthenocenyl-4,4,4-trifluooro-1,3-butanedionato-κ^2O,O′)rhodium(1)], for which the IC50 in the experiment with HeLa was determined as 54.7 µM; in the experiment with CoLo 320DM, 67.4 µM; in the experiment with COR L23 it was 49.2 µM; in the experiment with COR L23/CPR, 48 µM.

For `[Cl][Rh]([Cl])[Cl]` [RhCl3], in experiment [3], the Significant anticancer activity entry is “none”.

Take ferrocenoylacetone [Hfca]: the IC50 in the experiment with HeLa was 66.6 µM; in the experiment with CoLo 320DM, 57.1 µM.

As for benzoylferrocenoylmethane [Hbfcm], the IC50 with HeLa is 54.2 µM; in the experiment with CoLo 320DM it was 85.1 µM; in the experiment on COR L23, 66.8 µM; in the experiment on COR L23/CPR, 80.4 µM; in experiment [2] it was over 100 µM.

On to `C1=C\CC/C=C\CC/1.CC(=O)/C=C(/C)O.[Rh]` [Rh(acac)(cod)], for which the figures for the IC50 with HeLa and with CoLo 320DM were 97.3 µM and over 100 µM, respectively.

As to `C1=CCCC=CCC1.CC([O-])=CC(=O)[c-]1cccc1.[Fe+2].[Rh+].c1cc[cH-]c1` [Rh(fca)(cod), (η^4-1,5-cyclooctadiene)(1-ferrocenyl-1,3-butanedionato-κ^2O,O′)rhodium(1)], the results for the IC50 with HeLa and in the experiment on CoLo 320DM were 64.4 µM and 56.6 µM, respectively.

For “(η^4-1,5-cyclooctadiene)(1-ferrocenyl-1,3-propanedionato-κ^2O,O′)rhodium(1) [Rh(FcH)(cod)]”, the IC50 with HeLa worked out at 62.4 µM; with CoLo 320DM, 35.4 µM.

Regarding `C1=CCCC=CCC1.O=C(C=C([O-])[c-]1cccc1)c1ccccc1.[Rh+].[Ru+2].c1cc[cH-]c1` [[Rh(brcm)(cod)], (η^4-1,5-cyclooctadiene)(1-ruthenocenyl-3-phenyl-1,3-propanedionato-κ^2O,O′)rhodium(1)], the IC50 was 16.2 µM in the experiment on HeLa, 20.4 µM in the experiment on CoLo 320DM, 15.8 µM in the experiment with COR L23 and 14.1 µM with COR L23/CPR.

As for `C1=C\CC/C=C\CC/1.C1=C\CC/C=C\CC/1.[Cl-].[Cl-].[Rh].[Rh]` [[RhCl(cod)]2], in experiment [3], the Significant anticancer activity result is on record as “none”.

On to `C1=CCCC=CCC1.O=C(C=C[O-])[c-]1cccc1.[Rh+].[Ru+2].c1cc[cH-]c1` [[Rh(RcH)(cod)], (η^4-1,5-cyclooctadiene)(1-ruthenocenyl-1,3-propanedionato-κ^2O,O′)rhodium(1)], for which the IC50 in the experiment with HeLa worked out at 52 µM; in the experiment with CoLo 320DM, 68.8 µM; in the experiment on COR L23 it was 34 µM; with COR L23/CPR, 39.6 µM.

`C1=CCCC=CCC1.O=C(C=C([O-])[c-]1cccc1)[c-]1cccc1.[Fe+2].[Rh+].[Ru+2].c1cc[cH-]c1.c1cc[cH-]c1` [[Rh(fcrcm)(cod)], (η^4-1,5-cyclooctadiene)(1-ferrocenyl-3-ruthenocenyl-1,3-propanedionato-κ^2O,O′)rhodium(1)]: the IC50 with HeLa was 17.1 µM; with CoLo 320DM it was 29.2 µM; in the experiment with COR L23, 10.1 µM; with COR L23/CPR it was 20.1 µM.

For `N.N.[Cl][Pt][Cl]` [cisplatin], in experiment [4], the “Published dose modifying factors (DMFs)” value is 1.2-2.

Turning to `O=CCC(=O)[c-]1cccc1.[Fe+2].c1cc[cH-]c1` [Hfch, ferrocenoylacetaldehyde], the IC50 in the experiment with HeLa came to 73.4 µM; in the experiment on CoLo 320DM, 80.8 µM.

For `C1=CCCC=CCC1.CC(=O)C=C([O-])[c-]1cccc1.[Rh+].[Ru+2].c1cc[cH-]c1` [[Rh(rca)(cod)], (η^4-1,5-cyclooctadiene)(1-ruthenocenyl-1,3-butanedionato-κ^2O,O′)rhodium(1)], the IC50 in the experiment with HeLa stood at 4.86 µM; in the experiment with CoLo 320DM, 3 µM; in the experiment with COR L23, 0.18 µM; with COR L23/CPR, 2.74 µM.

As for “(η^4-1,5-cyclooctadiene)(1,3-diferrocenyl-1,3-propanedionato-κ^2O,O′)rhodium(1) [Rh(dfcm)(cod)]”, the IC50 was 18.4 µM in the experiment on HeLa; 70.8 µM in the experiment on CoLo 320DM; 19.9 µM in the experiment on COR L23; 30.8 µM in the experiment with COR L23/CPR; 42.2 µM in experiment [2].

Consider `C1=CCCC=CCC1.O=C(C=C([O-])C(F)(F)F)[c-]1cccc1.[Fe+2].[Rh+].c1cc[cH-]c1` [Rh(fctfa)(cod), (η^4-1,5-cyclooctadiene)(1-ferrocenyl-4,4,4-trifluooro-1,3-butanedionato-κ^2O,O′)rhodium(1)], for which the IC50 in the experiment with HeLa was 12.5 µM; with CoLo 320DM, 13.4 µM; with COR L23, 8.5 µM; in the experiment with COR L23/CPR, 5.8 µM; in experiment [2], 41.6 µM. The “Mean Inactivation Dose (Gy)” value in experiment [1] (0.39 μM complex) is reported as 2.41 Gy; in experiment [1] (0.78 μM complex), 2.19 Gy. Further, the “Dose Modifying Factor (DMF)” value was 2.6 in experiment [1] (0.39 μM complex) and 2.9 in experiment [1] (0.78 μM complex). For the same molecule, in experiment [1], the “Sensitivity of CHO cells to irradiation under hypoxic conditions (in words)” value is on record as “compare favorably with cisplatin”. Besides, the “Tumor specificity: activity against tumor cells versus stimulated normal human lymphocytes” value in experiment [2] is 4-5 times.

As to `C1=CCCC=CCC1.O=C(C=C([O-])C(Cl)(Cl)Cl)[c-]1cccc1.[Fe+2].[Rh+].c1cc[cH-]c1` [Rh(fctca)(cod), (η^4-1,5-cyclooctadiene)(1-ferrocenyl-4,4,4-trichloro-1,3-butanedionato-κ^2O,O′)rhodium(1)], the IC50 with HeLa came to 7.9 µM; in the experiment on CoLo 320DM, 3 µM; in the experiment with COR L23 it was 1.3 µM; in the experiment on COR L23/CPR it was 2 µM; in experiment [2], 4.7 µM. In addition, the “Mean Inactivation Dose (Gy)” value in experiment [1] (0.39 μM complex) came to 3.73 Gy; in experiment [1] (0.78 μM complex) it was 4.46 Gy. Also, the “Dose Modifying Factor (DMF)” value is 1.9 in experiment [1] (0.39 μM complex) and 1.6 in experiment [1] (0.78 μM complex). Also, the “Sensitivity of CHO cells to irradiation under hypoxic conditions (in words)” value in experiment [1] is on record as “compare favorably with cisplatin”.

Consider `C1=CCCC=CCC1.O=C(C=C([O-])c1ccccc1)[c-]1cccc1.[Fe+2].[Rh+].c1cc[cH-]c1` [Rh(bfcm)(cod), (η^4-1,5-cyclooctadiene)(1-ferrocenyl-3-phenyl-1,3-propanedionato-κ^2O,O′)rhodium(1)], for which the IC50 in the experiment with HeLa amounted to 28.3 µM; in the experiment with CoLo 320DM, 87.1 µM; with COR L23, 22.5 µM; in the experiment on COR L23/CPR, 22 µM; in experiment [2], 97.2 µM.
